The conditions of series [1]: Crystal; DTA.
A short description of series [2]: Molar enthalpy of transition or fusion. The following applies: Crystal; DSC.

Here are results for one molecule from the NIST ThermoML archive (doi:10.1021/acs.jced.7b00601).

Numbers after ± are expanded uncertainties.

`COc1c(N2CCNC(C)C2)c(F)cc2c(=O)c(C(=O)O)cn(C3CC3)c12` (configuration not stated) [gatifloxacin]: in series [1], the Normal melting temperature is 162.00 ± 2.9 °C. Moreover, the “Molar enthalpy of transition or fusion” value in series [2] worked out at 8.35 ± 0.232 kcal/mol.
